Test results as given in ChEMBL document CHEMBL2062511, “Synthesis and anti-HIV activities of symmetrical dicarboxylate esters of dinucleoside reverse transcriptase inhibitors” (Bioorg Med Chem Lett, 2012).

Assays:
[1] = Cytotoxicity against human CEM-SS cells by XTT method; format: cell-based; details: read-out: TC50 (the source's name)
[2] = Cytotoxicity against human PBMC; format: cell-based; details: read-out: TC50 (the source's name)
[3] = test system: Human immunodeficiency virus 1; assay: Antiviral activity against HIV-1 subtype 3B infected in CEM-SS cells assessed as inhibition of viral replication after 6 days by XTT assay; format: functional, organism-based; details: Human immunodeficiency virus 1, subtype 3B, 144 h
[4] = Therapeutic index, ratio of TC50 for human PBMC to EC50 for HIV-1 subtype B US/92/727 infected in PBMC; details: uninfected and infected with HIV-1 subtype B US/92/727, read-out: TI
[5] = Therapeutic index, ratio of TC50 for human CEM-SS cells to EC50 for HIV-1 subtype 3B infected in CEM-SS cells; format: cell-based; details: uninfected and infected with HIV-1 subtype 3B, read-out: TI
[6] = test system: Human immunodeficiency virus 1; assay: Antiviral activity against HIV-1 subtype B US/92/727 infected in PBMC assessed as inhibition of viral replication after 7 days by XTT assay; format: functional, organism-based; details: Human immunodeficiency virus 1, subtype B US/92/727, 168 h
[7] = test system: Human immunodeficiency virus 1; assay: Ratio of FLT EC50 to compound EC50 for HIV-1 subtype 3B infected in CEM-SS cells; format: functional
[8] = test system: Human immunodeficiency virus 1; assay: Ratio of FLT EC50 to compound EC50 for HIV-1 subtype B US/92/727 infected in PBMC; format: functional
[9] = test system: Human immunodeficiency virus 1; assay: Ratio of 3TC EC50 to compound EC50 for HIV-1 subtype 3B infected in CEM-SS cells; format: functional
[10] = test system: Human immunodeficiency virus 1; assay: Ratio of 3TC EC50 to compound EC50 for HIV-1 subtype B US/92/727 infected in PBMC; format: functional
[11] = test system: Human immunodeficiency virus 1; assay: Ratio of AZT EC50 to compound EC50 for HIV-1 subtype B US/92/727 infected in PBMC; format: functional

Row | SMILES | CC50 [1] [nM] | CC50 [2] [nM] | EC50 [3] [nM] | selectivity ratio [4] | selectivity ratio [5] | EC50 [6] [nM] | Ratio EC50 [7] | Ratio EC50 [8] | Ratio EC50 [9] | Ratio EC50 [10] | Ratio EC50 [11]
1 | Cc1cn([C@H]2C[C@H](F)[C@@H](COC(=O)CCCCCCCCC(=O)OC[C@H]3O[C@@H](n4cc(C)c(=O)[nH]c4=O)C[C@@H]3F)O2)c(=O)[nH]c1=O | > 1000 | > 1000 | 4 | > 1000 | > 250 | 1 | 5 |  |  |  | 
2 | Cc1cn([C@H]2C[C@H](F)[C@@H](COC(=O)CCCCCCCCCCC(=O)OC[C@H]3O[C@@H](n4cc(C)c(=O)[nH]c4=O)C[C@@H]3F)O2)c(=O)[nH]c1=O | > 1000 | > 1000 | 4 | > 1030 | > 250 | 0.97 | 5 | 2 |  |  | 
3 | Cc1cn([C@H]2C[C@H](F)[C@@H](COC(=O)CCCCCCCCCCCCC(=O)OC[C@H]3O[C@@H](n4cc(C)c(=O)[nH]c4=O)C[C@@H]3F)O2)c(=O)[nH]c1=O | > 1000 | > 1000 | 3 | > 1320 | > 333 | 0.76 | 5 | 2 |  |  | 
4 | Cc1cn([C@H]2C[C@H](N=[N+]=[N-])[C@@H](COC(=O)CCCCCCCCC(=O)OC[C@H]3O[C@@H](n4cc(C)c(=O)[nH]c4=O)C[C@@H]3N=[N+]=[N-])O2)c(=O)[nH]c1=O | > 1000 | > 1000 | 5 | > 250 | > 200 | 4 |  |  |  |  | 
5 | Cc1cn([C@H]2C[C@H](N=[N+]=[N-])[C@@H](COC(=O)CCCCCCCCCCC(=O)OC[C@H]3O[C@@H](n4cc(C)c(=O)[nH]c4=O)C[C@@H]3N=[N+]=[N-])O2)c(=O)[nH]c1=O | > 1000 | > 1000 | 4 | > 500 | > 250 | 2 |  |  |  |  | 
6 | Cc1cn([C@H]2C[C@H](N=[N+]=[N-])[C@@H](COC(=O)CCCCCCCCCCCCC(=O)OC[C@H]3O[C@@H](n4cc(C)c(=O)[nH]c4=O)C[C@@H]3N=[N+]=[N-])O2)c(=O)[nH]c1=O | > 1000 | > 1000 | 3 | > 333 | > 333 | 3 |  |  |  |  | 
7 | Nc1ccn([C@@H]2CS[C@H](COC(=O)CCC(=O)OC[C@@H]3O[C@H](n4ccc(N)nc4=O)CS3)O2)c(=O)n1 | > 1000 | > 1000 | 130 | > 7 | > 7.7 | 150 |  |  |  |  | 
8 | Nc1ccn([C@@H]2CS[C@H](COC(=O)CCCCCCCCC(=O)OC[C@@H]3O[C@H](n4ccc(N)nc4=O)CS3)O2)c(=O)n1 | > 1000 | > 1000 | 30 | > 17 | > 33 | 60 |  |  | 1.5 | 1.5 | 
9 | Nc1ccn([C@@H]2CS[C@H](COC(=O)CCCCCCCCCCC(=O)OC[C@@H]3O[C@H](n4ccc(N)nc4=O)CS3)O2)c(=O)n1 | > 1000 | > 1000 | 9 | > 50 | > 333 | 20 |  |  |  |  | 
10 | Nc1ccn([C@@H]2CS[C@H](COC(=O)CCCCCCCCCCCCC(=O)OC[C@@H]3O[C@H](n4ccc(N)nc4=O)CS3)O2)c(=O)n1 | > 1000 | > 1000 | 3 | > 33 | > 333 | 30 |  |  | 3 | 3 | 
11 | Cc1cn([C@H]2C[C@H](F)[C@@H](CO)O2)c(=O)[nH]c1=O [ALOVUDINE] | > 500 | > 500 | 20 | > 250 | > 25 | 2 | 4 |  |  |  | 45
12 | Nc1ccn([C@@H]2CS[C@H](CO)O2)c(=O)n1 [LAMIVUDINE] | > 500 | > 500 | 200 | > 5.6 | > 2.5 | 90 |  |  |  |  | 
13 | Cc1cn([C@H]2C[C@H](N=[N+]=[N-])[C@@H](CO)O2)c(=O)[nH]c1=O [ZIDOVUDINE] | > 500 | > 1000 | 2 | > 125 | > 250 | 8 |  |  |  |  | 
